Measurements: article PMC8395886, “Square-Planar vs. Trigonal Bipyramidal Geometry in Pt(II) Complexes Containing Triazole-Based Glucose Ligands as Potential Anticancer Agents” (International Journal of Molecular Sciences, 2021)
Like-named read-outs stand apart in the source and are kept apart here.

Experiments:
[1] = test system: MCF-7 (breast cancer cells); test: MTT cytotoxicity assay on MCF7 cells; type: cell-based, human; details: for IC50: 48 h incubation; for Selectivity Index H9c2/MCF7 / Selectivity Index HaCaT/MCF7: IC50 immortalized cells/IC50 cancer cells
Method: (§7) A431, H9c2, and MCF7 cells were purchased from American Type Culture Collection (ATCC). HaCaT cells were from Innoprot (Derio, Spain). Cells were cultured in DMEM (Sigma-Aldrich, St. Louis, MO, USA), supplemented with 10% fetal bovine serum (HyClone, Thermo Scientific, Logan, UT, USA) and antibiotics in a 5% CO2 humidified atmosphere at 37 °C. The growth medium of H9c2 cells was implemented with 2 mM L-glutamine and 2 mM sodium pyruvate. Cells were seeded in 96-well plates at a density of 2.5 × 10^3 cells per well. Different drugs were added at increasing concentrations 24 h after seeding for dose-dependent assays. […] After 48 h incubation, cell viability was assessed by MTT assay, as described in a previous study [30]. Control experiments were performed by either growing cells in the absence of the compound or by supplementing the cell cultures with identical volumes of buffer (water:acetone, 1:1 v/v). Each value is the mean of three independent experiments, each with three determinations. Significance was determined by Student’s t-test.

[2] = test system: A431 (epidermoid carcinoma cells); test: MTT cytotoxicity assay on A431 cells; type: cell-based, human; details: for IC50: 48 h incubation; for Selectivity Index H9c2/A431 / Selectivity Index HaCaT/A431: IC50 immortalized cells/IC50 cancer cells
Method: as §7

[3] = In-solution stability by 1H-NMR over time; type: physicochemical
Method: To compare the solution stability of the complexes, ^1H-NMR and UV–vis spectra over time were recorded for 4Pt type species dissolved in diverse aqueous (phosphate buffer, PB; pH 7.4): organic solvent mixtures, i.e., 1:1 v/v D2O:acetone-d6; 9:1 v/v PB:DMSO-d6; 1:1 v/v PB:DMSO-d6 and DMSO-d6. These solvents were selected to verify the stability in pseudo-physiological conditions in the presence of solvents with different coordinating properties and concentrations.
The appropriate 4Pt complex (5 mg) was dissolved in 0.5 mL of DMSO-d6 or acetone-d6. Calculated volumes of solution were diluted to 600 µL with the appropriate volumes of PB in D2O (25 mM, pH 7.4) and/or DMSO-d6 to provide a 1 mM solution of the complex with the appropriate v/v ratio of solvents. Samples were incubated at 37 °C, and NMR spectra were recorded at different times.

[4] = test system: HaCaT (human keratinocyte cells); test: MTT cytotoxicity assay on HaCaT cells; type: cell-based; details: 48 h incubation
Method: as §7

[5] = test system: H9c2 (rat cardiomyoblast cells); test: MTT cytotoxicity assay on H9c2 cells; type: cell-based; details: 48 h incubation
Method: as §7

[6] = test system: MCF-7, A431, H9c2 and HaCaT cells; test: MTT assay, all the analyzed cell lines (statement in words); type: cell-based; details: 48 h
Method: The biological effect of the Pt-compounds was tested on two human tumor cell lines, MCF-7 (breast cancer cells) and A431 (epidermoid carcinoma cells), and two non-tumorigenic cell lines, H9c2 (rat cardiomyoblast cells), and HaCaT (human keratinocyte cells), using the MTT assay. […] Indeed, due to their inertness towards the substitution of the sugar ligand, their biological activity can be influenced by the nature of the sugar ligand, whose presence in the complex can affect its internalization or mechanism of action once inside the cell. On the other hand, in the case of the five-coordinate complexes, the loss of the sugar tag plausibly determines their substantial leveling of activities. […] The behavior of 4Pt-im was very similar to that of 4Pt-py.
(§1) A431, H9c2, and MCF7 cells were purchased from American Type Culture Collection (ATCC). HaCaT cells were from Innoprot (Derio, Spain). Cells were cultured in DMEM (Sigma-Aldrich, St. Louis, MO, USA), supplemented with 10% fetal bovine serum (HyClone, Thermo Scientific, Logan, UT, USA) and antibiotics in a 5% CO2 humidified atmosphere at 37 °C. The growth medium of H9c2 cells was implemented with 2 mM L-glutamine and 2 mM sodium pyruvate. […] After 48 h incubation, cell viability was assessed by MTT assay, as described in a previous study. […] Significance was determined by Student’s t-test.

A431 cells [7] = test: GLUT1-inhibitor-mediated cytotoxicity assay (quercetin, MTT); type: cell-based, human
Method: (§2) The cell death mechanism induced by 4Pt-py was analyzed on A431 cells. First, the internalization process of 4Pt-py was evaluated by studying the involvement of GLUT receptors. In particular, 4Pt-py internalization and cytotoxicity were tested using quercetin as a glucose transporter inhibitor [24, 30, 42]. […] The 10 µM concentration used was very similar to the IC50 value, and then, a double value (20 µM) was also used to definitely exclude necrosis at very high concentrations.
as §1
(§3) Figure 8 Analysis of the mechanism of action of 4Pt-py. […] Cell viability was assessed using the MTT assay after 48 h incubation. […] (B) Cells were incubated with increasing amounts of 4Pt-py for 48 h, and the release of LDH was measured. […] The % of LDH release was calculated as described in the Materials and Methods section.

procaspase-3 = details: A431 cells, 12 μM, 48 h
Method: (§4) The activation of the apoptotic pathway was analyzed by Western blotting and an analysis of the mitochondrial potential as it is well known that mitochondrial outer membrane permeabilization is essential to initiate mitochondrial apoptosis.
(§5) A431 cells were plated at a density of 3 × 10^5 cells cm^−2 in a complete medium for 24 h and then treated for 48 h with 12 µM 4Pt-py. At the end of the incubation, both untreated and treated cells were analyzed, as described previously for Western blot analyses. Upon the determination of total protein concentration in the supernatant by the Bradford assay, samples were analyzed by SDS-PAGE and Western blot using specific antibodies directed towards procaspase-3 or -9 (Cell Signal Technology, Danvers, MA, USA). β-actin (Sigma-Aldrich) or GAPDH (Thermo Fisher, Rockford, IL, USA) was used as the loading control. Each value is the mean of three independent experiments, each with three determinations. Significance was determined by Student’s t-test.
(§6) A431 cells were incubated with 12 μM of 4Pt-py for 48 h. (A,B) Analysis by Western blotting of pro-caspase-3 and -9. Β-actin or GAPDH was used as the loading control.

procaspase-9 = details: A431 cells, 12 μM, 48 h
Method: as §4, §5, §6

A431 cells [8] = details: IC50 value (12 µM) and 20 µM, 48 h
Method: as §4
Each value is the mean of three independent experiments, each with three determinations. Significance was determined by Student’s t-test.
as §6

A431 cells [9] = test: LDH release (necrosis); type: cell-based, human; details: 10 and 20 µM, 48 h
Method: as §2
The occurrence of necrosis was determined by measuring the release of lactate dehydrogenase (LDH) in the culture medium, as described by Sucha et al.. The LDH content of the medium from untreated cells was referred to as a spontaneous release, whereas the LDH total cellular content was determined upon cell lysis. The percentage of LDH release was calculated as:(1) LDH release % = [experimental−spontaneus release/total content−spontaneous release]×100
as §3, with “4Pt-py. (A) Glucose-transporter-dependent cytotoxicity of 4Pt-py on A431 cells.” for “4Pt-py.”

[10] = test system: HaCaT (human keratinocyte cells); details: 48 h incubation; read-out: MTT IC50 48 h, HaCaT; cited from earlier work
[11] = test system: A431 (epidermoid carcinoma cells); details: 48 h incubation; read-out: MTT IC50 48 h, A431; cited from earlier work

SMILES	IC50 [1] [µM]	Selectivity Index H9c2/MCF7 [1]	Selectivity Index HaCaT/MCF7 [1]	IC50 [2] [µM]	Selectivity Index H9c2/A431 [2]	Selectivity Index HaCaT/A431 [2]	Structural variations in solution (1H-NMR) ([3]; 1:1 v/v D2O:acetone-d6, over 3 days)	IC50 [4] [µM]	IC50 [5] [µM]	Toxic activity (in words) [6]	Inhibition of cytotoxicity by glucose transporter inhibitor quercetin (A431 cells [7]; A431 cells, 0.5–200 μM compound ± 5 μM quercetin, 48 h)	Pro-caspase-3 signal (procaspase-3)	Pro-caspase-9 signal (procaspase-9)	Mitochondrial potential (Δψm) (A431 cells [8])	LDH release (A431 cells [9])	Time to equilibrium of sugar ligand/DMSO exchange ([3]; 1:1 v/v PB:DMSO-d6, 37 °C) [h]	IC50 [10] [µM]	IC50 [11] [µM]	Lethality of quercetin alone (A431 cells [7]; 5 μM, data not shown)
CC(=O)OC[C@H]1O[C@@H](n2cc(-c3c[n+]([Pt-2]4([CH3])[n+]5cccc6ccc7ccc[n+]4c7c65)cn3C)nn2)[C@H](OC(C)=O)[C@@H](OC(C)=O)[C@@H]1OC(C)=O.O=S(=O)([O-])C(F)(F)F [4Pt-im]	43 ± 7	1.23	0.63	16 ± 8	3.3	1.69	No appreciable structural variations	27 ± 7	53 ± 11										
Cn1c[n+]([Pt-2]2([CH3])[n+]3cccc4ccc5ccc[n+]2c5c43)cc1-c1cn([C@@H]2O[C@H](CO)[C@@H](O)[C@H](O)[C@H]2O)nn1.O=S(=O)([O-])C(F)(F)F [4Pt-imdep]	> 200			> 200				> 200	> 200	No toxic activity was observed									
CC(=O)OC[C@H]1O[C@@H](n2cc(-c3ccc[n+]([Pt-2]4([CH3])[n+]5cccc6ccc7ccc[n+]4c7c65)c3)nn2)[C@H](OC(C)=O)[C@@H](OC(C)=O)[C@@H]1OC(C)=O.O=S(=O)([O-])C(F)(F)F [4Pt-py]	35 ± 4	0.63	1.88	12 ± 2	1.83	5.5		66 ± 11	22 ± 10		no inhibition of cytotoxicity was observed in the presence of quercetin	small but significant decrease	small but significant decrease	significant decrease	no LDH release was observed	24			
N.N.[Cl][Pt][Cl] [Cisplatin, reference compound]	18 ± 1.6	0.44			0.2	0.17			8 ± 2.1								6.6 ± 0.3	39 ± 12	
O=c1c(O)c(-c2ccc(O)c(O)c2)oc2cc(O)cc(O)c12 [quercetin, reference compound]																			non-lethal concentration
